Experimental data: publication PMC6832239, “The Effects of a Novel Series of KTTKS Analogues on Cytotoxicity and Proteolytic Activity” (Molecules, 2019)
Like-named read-outs stand apart in the source and are kept apart here. Residues, ends and D or L forms follow the SMILES beside them.

Assays:
[1] = Viability of fibroblast cells, MTT assay; type: cell-based, Human; details: human, primary dermal fibroblast cells, 24 h, MTT, ± 2, read-out: Viability of fibroblast cells
Procedure: Viability of fibroblast cells was examined with the use of the MTT assay. MTT, a yellow tetrazole, is reduced to purple formazan only in living cells. Absorbance of the coloured solution was measured by a spectrophotometer.
These studies were performed on primary dermal fibroblasts cells. The cells were maintained in DMEM supplemented with 10% fetal bovine serum (FBS), 2 mM glutamin, 50 U/mL penicillin and […] streptomycin at 37 °C in a 5% CO2 incubator. For experiments, cells cultures were plated at a density of 1 × 10^6/well in six-well culture plates (Costar, St. Louis, MO, USA) in 2 mL of growth medium. Cells reached about 80% of confluency at day 2 were used for the assays.
Toxicity of the tested substances was determined using an MTT [3-(4,5-dimethylthiazol-2-yl)-2,5-diphenyltetrazolium bromide)] assay. Palmitoyl and lipoyl peptides were dissolved in DMSO (dimethyl sulfoxide), the other peptides in DMEM, and added to the cell culture medium. Simultaneously, the same concentrations of DMSO without peptides were added to cells, serving as controls. The final peptide concentrations were: 1 μM, 10 μM, and 100 μM. After 24 h incubation, the cells cultured with the tested compounds were washed with phosphate-buffered saline (PBS) and then incubated for 4 h in 2 mL of MTT solution (5 mg/mL). After removing the medium, the cells were lysed in 200 μL of DMSO with 20 μL of Sorensen’s buffer (pH 10.5, 0.1 mol/L glycine with 0.1 mol/L NaCl). The absorbance of converted dye in living cells was measured at a wavelength of 570 nm. The mean values ± SD from three independent experiments done in duplicate are presented.

plasmin = biological target: T1, plasmin (Homo sapiens, UniProt P00747); experiment: Amidolytic activity of plasmin (chromogenic substrate H-D-Val-Leu-Lys-pNA); type: biochemical
T1 construct: purchased Chromogenix (Milano, Italy)
T1 sequence (P00747 581-810 limits assumed): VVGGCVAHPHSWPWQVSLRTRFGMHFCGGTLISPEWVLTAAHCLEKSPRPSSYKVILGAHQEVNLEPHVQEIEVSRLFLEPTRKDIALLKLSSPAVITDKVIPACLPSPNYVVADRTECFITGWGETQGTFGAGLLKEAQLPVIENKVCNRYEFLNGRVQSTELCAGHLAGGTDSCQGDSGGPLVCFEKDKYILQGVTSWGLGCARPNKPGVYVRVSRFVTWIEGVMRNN
T1 sequence (P00747 97-580 partner limits assumed): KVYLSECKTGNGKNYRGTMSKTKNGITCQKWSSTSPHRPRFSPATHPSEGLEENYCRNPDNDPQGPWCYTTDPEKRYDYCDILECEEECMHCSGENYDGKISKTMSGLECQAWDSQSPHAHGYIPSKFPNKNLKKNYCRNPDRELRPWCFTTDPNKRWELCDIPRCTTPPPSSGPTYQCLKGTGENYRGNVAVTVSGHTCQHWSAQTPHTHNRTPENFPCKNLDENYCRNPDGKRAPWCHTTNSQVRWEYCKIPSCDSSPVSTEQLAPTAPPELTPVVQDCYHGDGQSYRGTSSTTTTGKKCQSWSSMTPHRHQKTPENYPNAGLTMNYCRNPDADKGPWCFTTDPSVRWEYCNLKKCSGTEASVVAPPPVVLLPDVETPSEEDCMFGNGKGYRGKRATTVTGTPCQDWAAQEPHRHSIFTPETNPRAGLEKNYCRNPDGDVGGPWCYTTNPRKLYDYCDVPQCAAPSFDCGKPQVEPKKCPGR
Procedure: (§1) The determination of amidolytic activity was performed as previously described by Okada. A detailed description of the method is given below: 0.2 mL of the examined peptides (0.15 M NaCl as contro), a buffer, and 0.1 mL of enzyme solution were mixed. The final peptide concentrations were: 0.2 mM, 2 mM, and 20 mM. The mixture was incubated at 37 °C for 3 min; then the synthetic substrate solution was added in the same buffer. After 20 min of incubation, the reaction was stopped by adding 0.1 mL of 50% acetic acid and the absorbance of the released p-nitroaniline was measured at 405 nm. The mean values from three independent experiments done in duplicate are presented. A method error of 5% was adopted as statistical error. IC50 value was considered as the concentration of inhibitor that reduces absorbance by 50%, compared with absorbance measured under the same conditions without an inhibitor. IC50 was calculated mathematically by extrapolation using a linear plot. IC50 values are presented in Table 1 and Table 2, and graphically in Figure 1.
(§2) The buffers and the enzyme solutions included: • Tris buffer—0.6 mL (pH 8.8), enzyme: urokinase (50 units/mL), synthetic substrate: pyro-Glu-Gly-Arg-pNA·HCl (0.1 mL, 3 mM); • Tris buffer—0.5 mL (pH 8.4), enzyme: thrombin (1 units/mL), synthetic substrate: H-D-Phe-Pip-Arg-pNA (0.2 mL, 0.75 mM); • Tris buffer—0.5 mL (pH 7.4), enzyme: plasmin (0.4 units/mL), synthetic substrate: H-D-Val-Leu-Lys-pNA (0.2 mL, 3 mM); • Borate buffer—0.5 mL (pH 7.5), enzyme: trypsin (0.4 units/mL), synthetic substrate: Bzl-L-Arg-pNA·HCl (0.2 mL, 8 mM); • Tris buffer—0.6 mL (pH 9.0), enzyme: kallikrein (3 units/mL), synthetic substrate: H-D-Val-Leu-Arg-pNA·2HCl (0.1 mL, 75 mM); • Tris buffer—0.6 mL (pH 8.4), enzyme: t-PA ([…]), synthetic substrate: H-D-Ile-Pro-Arg-pNA (0.1 mL, 10 mM) • Tris buffer—0.6 mL (pH 9.0), enzyme: chymotrypsin (0.4 units/mL), synthetic substrate: Suc-Phe-pNA (0.2 mL, 8 mM)

urokinase = biological target: T2, urokinase (Homo sapiens, UniProt P00749); experiment: Amidolytic activity of urokinase (chromogenic substrate pyro-Glu-Gly-Arg-pNA); type: biochemical
T2 construct: purchased Sigma (Schnelldorf, Germany)
Procedure: as §1, §2

thrombin = biological target: T3, thrombin (Bos taurus, UniProt P00735); experiment: Amidolytic activity of thrombin (chromogenic substrate H-D-Phe-Pip-Arg-pNA); type: biochemical
T3 construct: purchased Lubelska Wytwórnia Szczepionek (Lublin, Poland)
Procedure: The determination of amidolytic activity was performed as previously described by Okada. A detailed description of the method is given below: 0.2 mL of the examined peptides (0.15 M NaCl as contro), a buffer, and 0.1 mL of enzyme solution were mixed. The final peptide concentrations were: 0.2 mM, 2 mM, and 20 mM. The mixture was incubated at 37 °C for 3 min; then the synthetic substrate solution was added in the same buffer. […] The mean values from three independent experiments done in duplicate are presented. A method error of 5% was adopted as statistical error. […] IC50 was calculated mathematically by extrapolation using a linear plot.

[2] = amidolytic activity, Tris pH 7.4, 37 °C, IC50 by extrapolation using a linear plot, error 5%, read-out: IC50 Plasmin
[3] = amidolytic activity, Tris pH 8.8, 37 °C, IC50 by extrapolation using a linear plot, error 5%, read-out: IC50 Urokinase
[4] = amidolytic activity, Tris pH 8.4, 37 °C, IC50 by extrapolation using a linear plot, error 5%, read-out: IC50 Thrombin
[5] = converted from IC50 of Table 1, read-out: -logIC50 Plasmin (converted)

Compound | IC50 (plasmin; [2]) [µM] | IC50 (urokinase; [3]) [mM] | IC50 (thrombin; [4]) [mM] | level of inhibition of plasmin activity (plasmin) | level of inhibition of urokinase activity (urokinase) | level of inhibition of thrombin activity (thrombin) | IC50 (plasmin; [5]) [µM] | IC50 (thrombin; converted from IC50 of Table 1, read-out: -logIC50 Thrombin (converted)) [mM] | IC50 (plasmin; amidolytic activity, palmitic peptides, read-out: IC50 plasmin (text, micromolar)) [µM] | viability at 24 h, 1 µmol/L [1] [%] | viability at 24 h, 10 µmol/L [1] [%] | viability at 24 h, 100 µmol/L [1] [%] | IC50 (urokinase) [mM]
CCCCCCCCCCCCCCCC(=O)N[C@@H](CCCNC(=N)N)C(=O)N[C@H](C(=O)N[C@H](C(=O)N[C@@H](CCCCN)C(=O)N[C@@H](CO)C(N)=O)[C@@H](C)O)[C@@H](C)O [Peptide 32, Pal-Arg-Thr-Thr-Lys-Ser- NH2] (HELM PEPTIDE1{[CCCCCCCCCCCCCCCC(=O)[*:2]].R.T.T.K.S.[am]}$$$$V2.0) | – | – | – | – | – | – | – | – | – | 104 | 113 | 118 | –
Ac-RTTRS-NH2 [Peptide 22, Ac-Arg-Thr-Thr-Arg-Ser-NH2] | 9080 ± 450 | > 20 | 1.47 ± 0.074 | – | – | – | – | – | – | 102 | 99 | 101 | –
C[C@@H](O)[C@H](NC(=O)[C@H](CCCCN)NC(=O)CCCCC1CCSS1)C(=O)N[C@H](C(=O)N[C@@H](CCCCN)C(=O)N[C@@H](CO)C(N)=O)[C@@H](C)O (mixture of isomers) [Peptide 7, Lip-Lys-Thr-Thr-Lys-Ser-NH2] | 580 ± 29 | 15.1 ± 0.75 | 11.7 ± 0.58 | – | – | – | – | – | – | 97 | 89 | 87 | –
Ac-RTTRS-OH [Peptide 18, Ac-Arg-Thr-Thr-Arg-Ser-OH] | 8810 ± 440 | 3.24 ± 0.16 | 3.12 ± 0.16 | – | – | – | 8910 | – | – | 88 | 103 | 107 | –
CCCCCCCCCCCCCCCC(=O)N[C@@H](CCCCN)C(=O)N[C@H](C(=O)N[C@H](C(=O)N[C@@H](CCCNC(=N)N)C(=O)N[C@@H](CO)C(N)=O)[C@@H](C)O)[C@@H](C)O [Peptide 16, Pal-Lys-Thr-Thr-Arg-Ser-NH2] (HELM PEPTIDE1{[CCCCCCCCCCCCCCCC(=O)[*:2]].K.T.T.R.S.[am]}$$$$V2.0) | – | – | – | – | – | – | – | – | – | 104 | 114 | 115 | 2.37 ± 0.12
C[C@@H](O)[C@H](NC(=O)[C@H](CCCNC(=N)N)NC(=O)CCCCC1CCSS1)C(=O)N[C@H](C(=O)N[C@@H](CCCCN)C(=O)N[C@@H](CO)C(=O)O)[C@@H](C)O (mixture of isomers) [Peptide 27, Lip-Arg-Thr-Thr-Lys-Ser-OH] | 2120 ± 110 | – | – | – | – | – | – | 4.27 | – | 105 | 91 | 80 | –
CCCCCCCCCCCCCCCC(=O)N[C@@H](CCCNC(=N)N)C(=O)N[C@H](C(=O)N[C@H](C(=O)N[C@@H](CCCNC(=N)N)C(=O)N[C@@H](CO)C(N)=O)[C@@H](C)O)[C@@H](C)O [Peptide 24, Pal-Arg-Thr-Thr-Arg-Ser-NH2] (HELM PEPTIDE1{[CCCCCCCCCCCCCCCC(=O)[*:2]].R.T.T.R.S.[am]}$$$$V2.0) | – | 0.26 ± 0.013 | – | – | – | – | – | – | – | 94 | 104 | 97 | –
H-KTTRS-OH [Peptide 9, H-Lys-Thr-Thr-Arg-Ser-OH] | 630 ± 31 | – | 4.01 ± 0.2 | – | – | – | – | – | – | 93 | 103 | 101 | –
CCCCCCCCCCCCCCCC(=O)N[C@@H](CCCCN)C(=O)N[C@H](C(=O)N[C@H](C(=O)N[C@@H](CCCNC(=N)N)C(=O)N[C@@H](CO)C(=O)O)[C@@H](C)O)[C@@H](C)O [Peptide 12, Pal-Lys-Thr-Thr-Arg-Ser-OH] (HELM PEPTIDE1{[CCCCCCCCCCCCCCCC(=O)[*:2]].K.T.T.R.S}$$$$V2.0) | – | – | – | – | – | – | – | – | – | 103 | 98 | 99 | –

Second part, led by results:

IC50 (plasmin; [2]) [µM] | IC50 (urokinase; [3]) [mM] | IC50 (thrombin; [4]) [mM] | level of inhibition of plasmin activity (plasmin) | level of inhibition of urokinase activity (urokinase) | level of inhibition of thrombin activity (thrombin) | IC50 (plasmin; [5]) [µM] | IC50 (thrombin; converted from IC50 of Table 1, read-out: -logIC50 Thrombin (converted)) [mM] | IC50 (plasmin; amidolytic activity, palmitic peptides, read-out: IC50 plasmin (text, micromolar)) [µM] | Compound | viability at 24 h, 1 µmol/L [1] [%] | viability at 24 h, 10 µmol/L [1] [%] | viability at 24 h, 100 µmol/L [1] [%] | IC50 (urokinase) [mM]
– | – | – | above 90% | above 90% | above 90% | – | – | – | CCCCCCCCCCCCCCCC(=O)N[C@@H](CCCNC(=N)N)C(=O)N[C@H](C(=O)N[C@H](C(=O)N[C@@H](CCCCN)C(=O)N[C@@H](CO)C(=O)O)[C@@H](C)O)[C@@H](C)O [Peptide 28, Pal-Arg-Thr-Thr-Lys-Ser-OH] (HELM PEPTIDE1{[CCCCCCCCCCCCCCCC(=O)[*:2]].R.T.T.K.S}$$$$V2.0) | 104 | 103 | 106 | –
440 ± 22 | 12 ± 0.59 | 2.93 ± 0.14 | – | – | – | – | – | – | H-RTTRS-NH2 [Peptide 21, H-Arg-Thr-Thr-Arg-Ser-NH2] | 84 | 94 | 103 | –
240 ± 12 | – | 10.9 ± 0.54 | – | – | – | – | – | – | C[C@@H](O)[C@H](NC(=O)[C@H](CCCCN)NC(=O)CCCCC1CCSS1)C(=O)N[C@H](C(=O)N[C@@H](CCCNC(=N)N)C(=O)N[C@@H](CO)C(=O)O)[C@@H](C)O (mixture of isomers) [Peptide 11, Lip-Lys-Thr-Thr-Arg-Ser-OH] | 102 | 105 | 98 | –
1010 ± 51 | – | 1.84 ± 0.092 | – | – | – | – | – | – | C[C@@H](O)[C@H](NC(=O)[C@H](CCCNC(=N)N)NC(=O)CCCCC1CCSS1)C(=O)N[C@H](C(=O)N[C@@H](CCCNC(=N)N)C(=O)N[C@@H](CO)C(=O)O)[C@@H](C)O (mixture of isomers) [Peptide 19, Lip-Arg-Thr-Thr-Arg-Ser-OH] | 79 | 81 | 90 | –
– | 3.12 ± 0.16 | – | – | – | – | – | – | < 200 | CCCCCCCCCCCCCCCC(=O)N[C@@H](CCCCN)C(=O)N[C@H](C(=O)N[C@H](C(=O)N[C@@H](CCCCN)C(=O)N[C@@H](CO)C(N)=O)[C@@H](C)O)[C@@H](C)O [Peptide 8, Pal-Lys-Thr-Thr-Lys-Ser-NH2] (HELM PEPTIDE1{[CCCCCCCCCCCCCCCC(=O)[*:2]].K.T.T.K.S.[am]}$$$$V2.0) | 96 | 83 | 83 | –
280 ± 14 | – | 3.89 ± 0.19 | – | – | – | 288 | – | – | H-RTTRS-OH [Peptide 17, H-Arg-Thr-Thr-Arg-Ser-OH] | 89 | 99 | 115 | –
